Source: patent publication US20260125400A1, “TYK2 DEGRADERS AND USES THEREOF” (Kymera Therapeutics, Inc., priority 2023, published 2026)
Like-named read-outs stand apart in the source and are kept apart here.

Target: T1, TYK2 (Homo sapiens, UniProt P29597)
T1 construct: Degradation of TYK2 in cells was quantitatively measured using Meso Scale Discovery (MSD) technology; endogenous in cells; host or cells: OCI-LY10
Test: TYK2 MSD degradation in OCI-LY10 cells
Format: cell-based
Conditions: 4 to 24 hours incubation; for DC50: read-out: TYK2 MSD OCI-LY10 Rel-DC50
Summary of the method: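 OCI-LY10 cells were treated with 9-dose 1:3 series (top 1 to 10 μM final) for 4 to 24 hours at 37° C. Lysate TYK2 quantified by MSD sandwich immunoassay; DC50 and Dmax from four-parameter inhibitor vs. response fit.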

[1] = TYK2 degradation in OCI-LY10 cells

T1 sequence (P29597 whole entry): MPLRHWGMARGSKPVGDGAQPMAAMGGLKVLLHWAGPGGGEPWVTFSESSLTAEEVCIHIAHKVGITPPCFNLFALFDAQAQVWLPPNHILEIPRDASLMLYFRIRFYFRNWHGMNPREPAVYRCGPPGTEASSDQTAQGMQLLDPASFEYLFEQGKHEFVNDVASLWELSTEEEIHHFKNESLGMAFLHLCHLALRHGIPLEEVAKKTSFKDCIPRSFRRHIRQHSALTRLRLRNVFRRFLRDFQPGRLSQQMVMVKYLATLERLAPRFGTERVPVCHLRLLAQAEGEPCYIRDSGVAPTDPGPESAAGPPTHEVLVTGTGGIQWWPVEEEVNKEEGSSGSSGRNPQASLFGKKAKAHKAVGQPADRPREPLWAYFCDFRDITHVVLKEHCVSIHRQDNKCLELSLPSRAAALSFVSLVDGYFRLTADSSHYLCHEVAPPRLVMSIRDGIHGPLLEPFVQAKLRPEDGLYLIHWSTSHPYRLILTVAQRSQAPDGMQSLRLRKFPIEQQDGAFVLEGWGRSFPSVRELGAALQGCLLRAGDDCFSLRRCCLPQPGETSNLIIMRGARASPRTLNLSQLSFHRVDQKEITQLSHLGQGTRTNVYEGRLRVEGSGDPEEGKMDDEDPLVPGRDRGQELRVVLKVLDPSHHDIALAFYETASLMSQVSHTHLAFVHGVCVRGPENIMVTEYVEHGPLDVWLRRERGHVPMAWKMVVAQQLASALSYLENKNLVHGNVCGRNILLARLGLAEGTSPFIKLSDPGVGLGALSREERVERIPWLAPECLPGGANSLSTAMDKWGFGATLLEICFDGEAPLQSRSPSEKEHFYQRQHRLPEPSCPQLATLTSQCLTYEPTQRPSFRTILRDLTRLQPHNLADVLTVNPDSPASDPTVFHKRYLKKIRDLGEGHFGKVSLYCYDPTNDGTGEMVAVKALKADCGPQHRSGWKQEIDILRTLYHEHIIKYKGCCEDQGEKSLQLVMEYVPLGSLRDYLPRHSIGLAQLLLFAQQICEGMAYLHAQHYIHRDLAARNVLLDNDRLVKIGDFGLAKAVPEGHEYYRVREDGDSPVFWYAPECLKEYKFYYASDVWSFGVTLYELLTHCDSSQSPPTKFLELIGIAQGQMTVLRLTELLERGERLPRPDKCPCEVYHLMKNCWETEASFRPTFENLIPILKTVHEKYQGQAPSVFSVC

SMILES	TYK2 MSD OCI-LY10 Dmax % [1]	DC50 [1] [nM]	TYK2 MSD OCI-LY10 Dmax % (OCI-LY10 cells)	DC50 (OCI-LY10 cells) [nM]
CNc1cc(N2CCc3c(CN4CCC(N5CCC6(CCN(C(=O)c7cc(Cl)c(C)c(N8CCC(=O)NC8=O)c7)CC6)CC5)C(F)(F)C4)cccc32)nn2c(C(=O)NC3CCC3OC)cnc12 (centres unmarked) [I-1000]	A (A (>90%))	< 1		
CNc1cc(N2CCc3c(-c4ncc(CN5CC6(CCN(C(=O)c7cc(N8CCC(=O)NC8=O)c(C)cn7)CC6(F)F)C5)cc4F)cccc32)nn2c(C(=O)N[C@@H]3C[C@@H]3F)cnc12 [I-1012]	A (A (>90%))	< 1		
CNc1cc(N2CCc3c(-c4ccc(CN5CC6(CCN(C(=O)c7cncc(N8CCC(=O)NC8=O)c7)CC6)C5)cn4)cccc32)nn2c(C(=O)N[C@@H]3C[C@@H]3F)cnc12 [I-353]	D (D (<50%))	> 100		
CNc1cc(N2CCc3c(-c4ccc(CN5CCC6(CCN(C(=O)c7cc(F)c(Cl)c(N8CCC(=O)NC8=O)c7)CC6)C(F)(F)C5)cn4)cccc32)nn2c(C(=O)N[C@@H]3C[C@@H]3F)cnc12 [I-656]			B (B (90 to >75%))	< 1
CNc1cc(N2CCc3c(CN4CCC(N5CC(N6CCN(c7cccn8c(N9CCC(=O)NC9=O)cnc78)CC6)C5)C(F)(F)C4)cccc32)nn2c(C(=O)N[C@@H]3C[C@@H]3F)cnc12 (some centres unmarked) [I-904]	A (A (>90%))	< 1		
CNc1cc(N2CCc3c(-c4ccc(CN5CCC(N6CC(N7CCN(c8ccc9c(c8)n(C)c(=O)n9C8CCC(=O)NC8=O)CC7)C6)C(F)(F)C5)cn4)cccc32)nn2c(C(=O)N[C@@H]3C[C@@H]3F)cnc12 (some centres unmarked) [I-282]	B (B (90 to >75%))	< 1		
CNc1cc(N2CCc3c(-c4ccc(CN5CC6(CCC(COc7ccc(Cl)c(C8CCC(=O)NC8=O)c7)CC6)C5)cn4)cccc32)nn2c(C(=O)N[C@@H]3C[C@@H]3F)cnc12 (some centres unmarked) [I-462]			D (D (<50%))	10 to 100
CNc1cc(N2CCc3c(-c4ccc(CN5CC6(CCN(C(=O)c7cc(Cl)c(C)c(N8CCC(=O)NC8=O)c7)CC6(F)F)C5)cn4)cccc32)nn2c(C(=O)N[C@@H]3C[C@@H]3F)cnc12 [I-634]			A (A (>90%))	< 1
CNc1cc(N2CCc3c(-c4ccc(CN5CC6(CCN(Cc7cc(N8CCC(=O)NC8=O)c(Cl)cc7C)CC6(F)F)C5)cn4)cccc32)nn2c(C(=O)N[C@@H]3C[C@@H]3F)cnc12 [I-456]			D (D (<50%))	> 100
CNc1cc(N2CCc3c(-c4ccc(CN5CCC(N6CCC7(CCN(c8ccc9c(c8)n(C)c(=O)n9C8CCC(=O)NC8=O)CC7)CC6)C(F)(F)C5)cn4)cccc32)nn2c(C(=O)N[C@@H]3C[C@@H]3F)cnc12 (some centres unmarked) [I-371]	C (C (75 to 50%))	< 10		
CNc1cc(N2CCc3c(CN4CCC(N5CCC(C6CCN(c7ccc8c(c7)n(C)c(=O)n8C7CCC(=O)NC7=O)CC6)CC5)C(F)(F)C4)cccc32)nn2c(C(=O)N[C@H]3C[C@H]3F)cnc12 (some centres unmarked) [I-84]	C (C (75 to 50%))	< 10		
CNc1cc(N2CCc3c(-c4ccc(CN5CCC6(CCN(C(=O)c7ccc(Cl)c(N8CCC(=O)NC8=O)c7)CC6)C5)cn4)cccc32)nn2c(C(=O)N[C@H]3C[C@H]3F)cnc12 [I-85]	B (B (90 to >75%))	< 1		
CNc1cc(N2CCc3c2cccc3C23CC(CN4CCC(N5CCC6(CCN(C(=O)c7ccc(Cl)c(N8CCC(=O)NC8=O)c7)CC6)CC5)C(F)(F)C4)(C2)C3)nn2c(C(=O)N[C@@H]3C[C@@H]3F)cnc12 (some centres unmarked) [I-807]	B (B (90 to >75%))	< 10		
CNc1cc(N2CCc3c(CN4CCC(N5CCC6(CCN(C(=O)c7cc(N8CCC(=O)NC8=O)c(Cl)c(C)n7)CC6)CC5)C(F)(F)C4)cccc32)nn2c(C(=O)N[C@@H]3CC[C@H]3OC)cnc12 (some centres unmarked) [I-1157]	A (A (>90%))	< 1		
CNc1cc(N2CCc3c(N4CCN(CC5CCC6(CC5)CCN(c5ccc7c(c5)n(C)c(=O)n7C5CCC(=O)NC5=O)CC6)CC4)cccc32)nn2c(C(=O)NC3CC3)cnc12 (centres unmarked) [I-39]	D (D (<50%))	< 10		
CNc1cc(-c2cn(CC3CCN(CCC4CCN(C(=O)c5ccc(Cl)c(N6CCC(=O)NC6=O)c5)CC4)CC3)c3ccccc23)nn2c(C(=O)N[C@@H]3C[C@@H]3F)cnc12 [I-771]			B (B (90 to >75%))	< 10
CNc1cc(N2CCc3c(-c4ccc(CN5CC6(CCN(C(=O)c7ccc(Cl)c(N8CCC(=O)NC8=O)c7)CC6(F)F)C5)cn4)cccc32)nn2c(C(=O)NC3CC3)cnc12 [I-29]	B (B (90 to >75%))	< 10		
CNc1cc(N2CCc3c(-c4ncc(CN5CC6(CCN(C(=O)c7cc(OC)c(C)c(N8CCC(=O)NC8=O)c7)CC6(F)F)C5)cc4F)cccc32)nn2c(C(=O)N[C@@H]3CC[C@H]3OC)cnc12 [I-1137]	A (A (>90%))	< 1		
CNc1cc(N2CCc3c(C#CCN4CC5(CCN(C(=O)c6ccc(Cl)c(N7CCC(=O)NC7=O)c6)CC5(F)F)C4)cccc32)nn2c(C(=O)N[C@@H]3C[C@@H]3F)cnc12 [I-241]	C (C (75 to 50%))	< 10		
CNc1cc(N2CCc3c(-c4ncc(CN5CC6(CCN(C(=O)c7cc(N8CCC(=O)NC8=O)c(Cl)c(C)n7)CC6(F)F)C5)cc4F)cccc32)nn2c(C(=O)N[C@@H]3C[C@@H]3F)cnc12 [I-930]	A (A (>90%))	< 1		
CNc1cc(N2CCc3c(-c4ccc(CN5CC6(CCN(C(=O)c7ccc(C(F)(F)F)c(N8CCC(=O)NC8=O)c7)CC6(F)F)C5)cn4)cccc32)nn2c(C(=O)N[C@@H]3C[C@@H]3F)cnc12 [I-969]	C (C (75 to 50%))	< 10		
CNc1cc(N2CCc3c(-c4ccc(CN5CC6(CCN(C(=O)c7cc(C)c(Cl)c(N8CCC(=O)NC8=O)c7)CC6(F)F)C5)c(C)n4)cccc32)nn2c(C(=O)N[C@@H]3C[C@@H]3F)cnc12 [I-966]	B (B (90 to >75%))	< 10		
CNc1cc(N2CCc3c(-c4ccc(CN5CCC6(CCN(C(=O)c7ccc(Cl)c(N8CCC(=O)NC8=O)c7)CC6)C(F)(F)C5)cn4)cccc32)nn2c(C(=O)NC3CCC3)cnc12 [I-824]	B (B (90 to >75%))	< 10		
CNc1cc(N2CCc3c(CN4CCC(N5CCN(Cc6ccc(Cl)c(C7CCC(=O)NC7=O)c6)CC5)C(F)(F)C4)cccc32)nn2c(C(=O)NC3CC3F)cnc12 (centres unmarked) [I-421]			D (D (<50%))	> 100
CNc1cc(N2CCc3c(-c4ccc(CN5CCC6(CCC(Oc7ccc(Cl)c(N8CCC(=O)NC8=O)c7)CC6)CC5)cn4)cccc32)nn2c(C(=O)N[C@@H]3C[C@@H]3F)cnc12 [I-96]	D (D (<50%))	< 10		
CNc1cc(N2CCc3c(-c4ccc(CN5CCC6(CCC(Nc7ccc(Cl)c(C8CCC(=O)NC8=O)c7)CC6)CC5)cn4)cccc32)nn2c(C(=O)N[C@@H]3C[C@@H]3F)cnc12 (some centres unmarked) [I-251]	C (C (75 to 50%))	< 10		
CNc1cc(N2CCc3c(-c4ccc(N5CC6(CCN(Cc7ccc(N8CCC(=O)NC8=O)c(Cl)c7)CC6)C5)cn4)cccc32)nn2c(C(=O)N[C@@H]3C[C@@H]3F)cnc12 [I-881]	B (B (90 to >75%))	< 10		
CNc1cc(N2CCc3c(CN4CCC(N5CC6(CCN(C(=O)c7cc(Cl)c(C)c(N8CCC(=O)NC8=O)c7)CC6)C5)C(F)(F)C4)cccc32)nn2c(C(=O)N[C@@H]3CC[C@H]3OC)cnc12 (some centres unmarked) [I-1068]	A (A (>90%))	< 1		
